Test results: PMC9475448, “What a difference a methylene makes: replacing Glu with Asp or Aad in the Lys-urea-Glu pharmacophore of PSMA-targeting radioligands to reduce kidney and salivary gland uptake” (Theranostics, 2022)

Assays:
[1] = tested on: mouse kidneys and salivary glands; assay: Biodistribution of previously reported [68Ga]Ga-HTK03041 in mice; format: in vivo; details: 1h post-injection, unreported data of the earlier study
[2] = tested on: mouse kidneys and salivary glands; set-up: method as in PMID 32859704; details: 1h post-injection; cited from earlier work

O=C([O-])CN1CCN(CC(=O)[O-])CCN(CC(=O)NCC2CCC(C(=O)NC(Cc3c4ccccc4cc4ccccc34)C(=O)NCCCCC(NC(=O)NC(CCC(=O)O)C(=O)O)C(=O)O)CC2)CCN(CC(=O)[O-])CC1.[68Ga+3] (centres unmarked) [[^68Ga]Ga-HTK03041]
Salivary gland uptake [1]: 4.99±0.88 %IA/g
Kidney uptake [2]: 170±26.4 %IA/g
